# Experimental data taken from article PMC4209162, “Specific aromatic foldamers potently inhibit spontaneous and seeded Aβ42 and Aβ43 fibril assembly” (Biochemical Journal, 2014).
# Legend:
# Aβ42 oligomers = Aβ42 oligomers (Homo sapiens, UniProt P05067); assay: A11-reactive Aβ42 conformers (ELISA); format: biochemical; conditions: Aβ42 5 μM, foldamer 20 μM, 25°C
# Aβ43 oligomers = Aβ43 oligomers (Homo sapiens, UniProt P05067); assay: A11-reactive Aβ43 conformers (ELISA); format: biochemical; conditions: Aβ43 5 μM, foldamer 20 μM, 25°C
# Aβ43 [1] = target: T1, Aβ43 (Homo sapiens, UniProt P05067); assay: Seeded Aβ43 fibrillization (ThT fluorescence, EM); format: biochemical; conditions: Aβ prepared without DMSO, PBE pH 8, Aβ43 5 μM plus seed 0.1 μM monomer, foldamer 20 μM, 16 h, ThT
# [2] = system: SH-SY5Y human neuroblastoma cells; assay: Toxicity of Aβ42 conformers to SH-SY5Y cells (MTT reduction, LDH release); format: cell-based; conditions: 24 h, MTT and LDH
# Procedure: (§1) SH-SY5Y human neuroblastoma cells were maintained in Dulbecco's modified Eagle's medium (DMEM) plus 10 mM Hepes, 10% FBS, 4 mM glutamine, penicillin (200 units/ml) and streptomycin (200 μg/ml) in 5% CO2 at 37°C. Cells were differentiated in serum-free DMEM with N2 supplement and 10 μM all-trans-retinoic acid before use. Cells were plated at (10000 cells/well) in 96-well plates and grown overnight. Medium was removed and Aβ conformers or controls were added and cells were incubated for 24 h at 37°C. Toxicity was assessed using an MTT kit (Tox-1; Sigma) or via lactate dehydrogenase (LDH) release using the CytoTox-ONE™ kit (Promega). Toxicity values were normalized to the buffer control without Aβ.
# [3] = system: SH-SY5Y human neuroblastoma cells; assay: Toxicity of Aβ43 conformers to SH-SY5Y cells (MTT reduction, LDH release); format: cell-based; conditions: 24 h, MTT and LDH
# Procedure: as §1
# Aβ42 [4] = target: T2, Aβ42 (Homo sapiens, UniProt P05067); assay: Seeded Aβ42 fibrillization (ThT fluorescence, EM); format: biochemical; conditions: Aβ prepared without DMSO, PBE pH 8, Aβ42 5 μM plus seed 0.1 μM monomer, foldamer 20 μM, 16 h
# Aβ43 [5] = target: T1, Aβ43; assay: Spontaneous Aβ43 fibrillization (ThT fluorescence, EM); format: biochemical; conditions: Aβ prepared without DMSO, PBE pH 8, Aβ43 5 μM, foldamer 20 μM, 16 h, 25°C, ThT
# Aβ42 [6] = target: T2, Aβ42; assay: Spontaneous Aβ42 fibrillization (ThT fluorescence, EM); format: biochemical; conditions: 25°C
# [7] = 4 h (endpoint of fibrillization)
# T2 sequence (P05067 672-713 limits assumed): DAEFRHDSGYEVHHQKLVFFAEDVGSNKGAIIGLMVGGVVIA
# Chain of Aβ42 oligomers (P05067 672-713 limits assumed): as above
# Chain of Aβ43 oligomers (P05067 672-714 limits assumed): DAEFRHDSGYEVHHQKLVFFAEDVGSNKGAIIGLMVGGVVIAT
# T1 sequence (P05067 672-714 limits assumed): as above
substance,measurement,setting,value
(Cit-Sal)4-CONH2,Effect on A11-reactive Aβ42 conformers after 0.5 h,Aβ42 oligomers; 0.5 h (end of lag phase),had no effect
same,Effect on A11-reactive Aβ42 conformers after 4 h,Aβ42 oligomers; [7],had no effect
same,Effect on A11-reactive Aβ43 conformers after 0.5 h,Aβ43 oligomers; 0.5 h (end of lag phase),had no effect
same,Effect on A11-reactive Aβ43 conformers after 4 h,Aβ43 oligomers; [7],had no effect
same,"Inhibition of seeded Aβ43 fibrillization, different assembly conditions",Aβ43 [1],had no effect
same,Effect on toxicity of Aβ42 conformers after 0.5 h of assembly,[2]; Aβ42 5 μM assembled with foldamer 20 μM for 0.5 h,had no effect on toxicity
same,Effect on toxicity of Aβ42 conformers after 4 h of assembly,[2]; Aβ42 5 μM assembled with foldamer 20 μM for 4 h,had no effect on toxicity
same,Effect on toxicity of Aβ43 conformers after 0.5 h of assembly,[3]; Aβ43 5 μM assembled with foldamer 20 μM for 0.5 h,had no effect on toxicity
same,Effect on toxicity of Aβ43 conformers after 4 h of assembly,[3]; Aβ43 5 μM assembled with foldamer 20 μM for 4 h,had no effect on toxicity
same,"Inhibition of seeded Aβ42 fibrillization, different assembly conditions",Aβ42 [4],had no effect
same,"Inhibition of spontaneous Aβ43 fibrillization, different assembly conditions",Aβ43 [5],had no effect
same,Inhibition of spontaneous Aβ42 fibrillization,"Aβ42 [6]; Aβ42 5 μM, foldamer 10 μM, 8 h, agitation, ThT fluorescence (EM 4 h)",ineffective
same,"Inhibition of spontaneous Aβ42 fibrillization, different assembly conditions","Aβ42 [6]; Aβ prepared without DMSO, PBE pH 8, Aβ42 5 μM, foldamer 20 μM, 16 h, ThT",had no effect
